Measurements reported in ChEMBL document CHEMBL5465560, “Selectivity Literature for EUbOPEN Chemogenomic Library” (2024).

Tests used:
[1] = molecular target: Dual specificity testis-specific protein kinase 1 (Homo sapiens) (UniProt Q15569); assay: Selectivity interaction (KinomeScan (DiscoverX)) EUB0000229b TESK1; conditions: at 10 µM
[2] = molecular target: T1, Myosin light chain kinase family member 4 (Homo sapiens) (UniProt Q86YV6); conditions: at 10 µM
T1 sequence (whole entry): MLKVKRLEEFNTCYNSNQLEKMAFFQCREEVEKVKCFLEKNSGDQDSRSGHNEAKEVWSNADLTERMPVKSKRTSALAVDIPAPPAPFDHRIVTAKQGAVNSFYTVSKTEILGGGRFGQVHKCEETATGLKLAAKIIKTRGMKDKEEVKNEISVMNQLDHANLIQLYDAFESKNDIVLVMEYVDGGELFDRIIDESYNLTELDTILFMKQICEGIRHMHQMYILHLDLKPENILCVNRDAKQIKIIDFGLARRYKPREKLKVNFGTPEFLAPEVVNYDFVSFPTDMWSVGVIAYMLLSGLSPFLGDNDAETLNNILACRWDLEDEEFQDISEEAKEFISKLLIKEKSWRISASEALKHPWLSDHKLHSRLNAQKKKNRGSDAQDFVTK

[3] = molecular target: Serine/threonine-protein kinase MRCK beta (Homo sapiens) (UniProt Q9Y5S2); conditions: at 10 µM
[4] = molecular target: T2, Calcium/calmodulin-dependent protein kinase type IV (Homo sapiens) (UniProt Q16566); conditions: at 10 µM
T2 sequence (whole entry): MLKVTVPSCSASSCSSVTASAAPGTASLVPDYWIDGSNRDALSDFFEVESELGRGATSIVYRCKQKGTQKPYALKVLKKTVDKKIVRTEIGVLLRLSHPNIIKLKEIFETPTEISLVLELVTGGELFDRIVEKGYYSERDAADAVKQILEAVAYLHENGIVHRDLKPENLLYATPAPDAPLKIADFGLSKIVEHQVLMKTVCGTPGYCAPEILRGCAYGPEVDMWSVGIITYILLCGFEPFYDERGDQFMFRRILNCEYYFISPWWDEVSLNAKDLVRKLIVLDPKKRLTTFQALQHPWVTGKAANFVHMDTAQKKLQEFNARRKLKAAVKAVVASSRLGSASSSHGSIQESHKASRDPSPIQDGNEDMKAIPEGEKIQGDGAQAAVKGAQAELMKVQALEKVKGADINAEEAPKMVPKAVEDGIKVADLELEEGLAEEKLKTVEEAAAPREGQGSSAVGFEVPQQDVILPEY

[5] = molecular target: T3, Protein kinase C epsilon type (Homo sapiens) (UniProt Q02156); assay: Selectivity interaction (Ambit KINOMEscan and KiNATiv profiling in Jurkat cells) EUB0000090b PRKCE; format: cell-based; conditions: at 1 µM
T3 sequence (whole entry): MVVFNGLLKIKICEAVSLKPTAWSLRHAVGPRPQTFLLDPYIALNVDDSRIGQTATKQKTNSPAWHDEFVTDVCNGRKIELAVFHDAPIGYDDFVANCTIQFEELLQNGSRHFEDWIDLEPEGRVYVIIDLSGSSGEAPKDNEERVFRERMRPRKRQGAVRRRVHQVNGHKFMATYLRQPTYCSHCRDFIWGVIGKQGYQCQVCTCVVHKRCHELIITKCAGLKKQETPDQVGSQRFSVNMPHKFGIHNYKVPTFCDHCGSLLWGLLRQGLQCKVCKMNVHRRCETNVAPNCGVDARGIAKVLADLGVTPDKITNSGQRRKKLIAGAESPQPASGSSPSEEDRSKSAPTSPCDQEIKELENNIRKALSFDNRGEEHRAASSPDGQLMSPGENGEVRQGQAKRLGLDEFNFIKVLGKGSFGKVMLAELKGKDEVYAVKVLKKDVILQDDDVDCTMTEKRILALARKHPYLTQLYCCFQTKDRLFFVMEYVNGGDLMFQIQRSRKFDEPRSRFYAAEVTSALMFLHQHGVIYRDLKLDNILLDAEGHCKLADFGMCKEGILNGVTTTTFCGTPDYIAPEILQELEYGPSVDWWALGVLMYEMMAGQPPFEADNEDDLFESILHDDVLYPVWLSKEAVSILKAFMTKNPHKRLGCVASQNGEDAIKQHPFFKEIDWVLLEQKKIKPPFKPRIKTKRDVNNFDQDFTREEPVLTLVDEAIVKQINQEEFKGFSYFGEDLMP

[6] = molecular target: T4, Casein kinase I isoform alpha-like (Homo sapiens) (UniProt Q8N752); assay: Selectivity interaction (KinomeScan (DiscoverX)) EUB0000618a CSNK1A1L; conditions: at 10 µM
T4 sequence (whole entry): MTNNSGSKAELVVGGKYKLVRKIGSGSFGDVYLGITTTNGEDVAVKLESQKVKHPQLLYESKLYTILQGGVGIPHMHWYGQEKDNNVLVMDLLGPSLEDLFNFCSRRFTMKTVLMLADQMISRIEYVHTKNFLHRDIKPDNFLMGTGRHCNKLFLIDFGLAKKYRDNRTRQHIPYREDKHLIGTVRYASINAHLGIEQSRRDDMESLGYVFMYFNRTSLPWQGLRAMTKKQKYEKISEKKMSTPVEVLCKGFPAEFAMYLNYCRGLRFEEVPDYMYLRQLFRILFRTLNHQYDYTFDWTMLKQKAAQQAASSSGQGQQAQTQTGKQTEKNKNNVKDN

[7] = molecular target: Nav1.5 (SCN5A) (Homo sapiens, UniProt Q14524); assay: Selectivity interaction (Panel of kinases, GPCRs, ion channels and transporters (enzymatic assay)) EUB0000266bCl SCN5A
[8] = molecular target: High affinity nerve growth factor receptor (Homo sapiens, UniProt P04629); assay: Selectivity interaction (ProQinase) EUB0000171b NTRK1
High affinity nerve growth factor receptor, sequence (P04629 33-796 limits assumed): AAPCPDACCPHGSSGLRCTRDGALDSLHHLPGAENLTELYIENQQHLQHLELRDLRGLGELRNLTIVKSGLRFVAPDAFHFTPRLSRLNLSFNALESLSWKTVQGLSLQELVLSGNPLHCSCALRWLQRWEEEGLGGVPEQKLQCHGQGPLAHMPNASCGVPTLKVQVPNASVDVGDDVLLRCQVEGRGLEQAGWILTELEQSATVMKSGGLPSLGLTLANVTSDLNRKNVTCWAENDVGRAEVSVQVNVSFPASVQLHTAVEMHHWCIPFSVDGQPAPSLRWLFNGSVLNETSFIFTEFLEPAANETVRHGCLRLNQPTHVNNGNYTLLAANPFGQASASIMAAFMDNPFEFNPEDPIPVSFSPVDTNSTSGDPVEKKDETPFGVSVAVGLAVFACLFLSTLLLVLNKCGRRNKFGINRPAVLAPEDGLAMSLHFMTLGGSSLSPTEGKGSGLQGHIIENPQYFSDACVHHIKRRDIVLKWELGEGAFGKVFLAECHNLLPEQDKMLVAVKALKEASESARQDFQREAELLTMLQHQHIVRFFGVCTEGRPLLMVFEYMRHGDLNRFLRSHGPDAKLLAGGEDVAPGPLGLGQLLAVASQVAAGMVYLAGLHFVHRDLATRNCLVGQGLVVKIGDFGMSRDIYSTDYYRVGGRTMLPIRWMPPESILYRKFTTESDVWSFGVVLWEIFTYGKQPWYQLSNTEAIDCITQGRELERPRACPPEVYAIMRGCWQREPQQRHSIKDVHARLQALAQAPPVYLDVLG

Dual specificity testis-specific protein kinase 1 (Homo sapiens), sequence (Q15569 whole entry, looked up): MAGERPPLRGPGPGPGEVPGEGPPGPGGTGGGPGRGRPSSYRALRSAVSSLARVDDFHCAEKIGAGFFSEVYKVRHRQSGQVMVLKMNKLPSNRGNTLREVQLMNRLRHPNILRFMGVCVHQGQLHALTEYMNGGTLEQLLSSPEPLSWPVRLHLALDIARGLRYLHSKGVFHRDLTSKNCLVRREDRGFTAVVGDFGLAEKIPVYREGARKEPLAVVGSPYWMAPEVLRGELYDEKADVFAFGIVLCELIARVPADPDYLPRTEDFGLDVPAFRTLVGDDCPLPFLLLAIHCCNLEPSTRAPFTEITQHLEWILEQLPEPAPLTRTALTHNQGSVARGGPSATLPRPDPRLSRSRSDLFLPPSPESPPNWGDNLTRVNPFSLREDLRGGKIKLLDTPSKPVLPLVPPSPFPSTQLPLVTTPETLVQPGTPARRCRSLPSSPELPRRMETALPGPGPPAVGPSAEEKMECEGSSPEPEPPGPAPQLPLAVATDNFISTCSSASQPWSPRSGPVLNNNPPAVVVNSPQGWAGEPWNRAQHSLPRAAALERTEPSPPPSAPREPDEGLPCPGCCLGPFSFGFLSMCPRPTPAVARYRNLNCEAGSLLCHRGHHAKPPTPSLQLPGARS
Serine/threonine-protein kinase MRCK beta (Homo sapiens), sequence (Q9Y5S2 whole entry): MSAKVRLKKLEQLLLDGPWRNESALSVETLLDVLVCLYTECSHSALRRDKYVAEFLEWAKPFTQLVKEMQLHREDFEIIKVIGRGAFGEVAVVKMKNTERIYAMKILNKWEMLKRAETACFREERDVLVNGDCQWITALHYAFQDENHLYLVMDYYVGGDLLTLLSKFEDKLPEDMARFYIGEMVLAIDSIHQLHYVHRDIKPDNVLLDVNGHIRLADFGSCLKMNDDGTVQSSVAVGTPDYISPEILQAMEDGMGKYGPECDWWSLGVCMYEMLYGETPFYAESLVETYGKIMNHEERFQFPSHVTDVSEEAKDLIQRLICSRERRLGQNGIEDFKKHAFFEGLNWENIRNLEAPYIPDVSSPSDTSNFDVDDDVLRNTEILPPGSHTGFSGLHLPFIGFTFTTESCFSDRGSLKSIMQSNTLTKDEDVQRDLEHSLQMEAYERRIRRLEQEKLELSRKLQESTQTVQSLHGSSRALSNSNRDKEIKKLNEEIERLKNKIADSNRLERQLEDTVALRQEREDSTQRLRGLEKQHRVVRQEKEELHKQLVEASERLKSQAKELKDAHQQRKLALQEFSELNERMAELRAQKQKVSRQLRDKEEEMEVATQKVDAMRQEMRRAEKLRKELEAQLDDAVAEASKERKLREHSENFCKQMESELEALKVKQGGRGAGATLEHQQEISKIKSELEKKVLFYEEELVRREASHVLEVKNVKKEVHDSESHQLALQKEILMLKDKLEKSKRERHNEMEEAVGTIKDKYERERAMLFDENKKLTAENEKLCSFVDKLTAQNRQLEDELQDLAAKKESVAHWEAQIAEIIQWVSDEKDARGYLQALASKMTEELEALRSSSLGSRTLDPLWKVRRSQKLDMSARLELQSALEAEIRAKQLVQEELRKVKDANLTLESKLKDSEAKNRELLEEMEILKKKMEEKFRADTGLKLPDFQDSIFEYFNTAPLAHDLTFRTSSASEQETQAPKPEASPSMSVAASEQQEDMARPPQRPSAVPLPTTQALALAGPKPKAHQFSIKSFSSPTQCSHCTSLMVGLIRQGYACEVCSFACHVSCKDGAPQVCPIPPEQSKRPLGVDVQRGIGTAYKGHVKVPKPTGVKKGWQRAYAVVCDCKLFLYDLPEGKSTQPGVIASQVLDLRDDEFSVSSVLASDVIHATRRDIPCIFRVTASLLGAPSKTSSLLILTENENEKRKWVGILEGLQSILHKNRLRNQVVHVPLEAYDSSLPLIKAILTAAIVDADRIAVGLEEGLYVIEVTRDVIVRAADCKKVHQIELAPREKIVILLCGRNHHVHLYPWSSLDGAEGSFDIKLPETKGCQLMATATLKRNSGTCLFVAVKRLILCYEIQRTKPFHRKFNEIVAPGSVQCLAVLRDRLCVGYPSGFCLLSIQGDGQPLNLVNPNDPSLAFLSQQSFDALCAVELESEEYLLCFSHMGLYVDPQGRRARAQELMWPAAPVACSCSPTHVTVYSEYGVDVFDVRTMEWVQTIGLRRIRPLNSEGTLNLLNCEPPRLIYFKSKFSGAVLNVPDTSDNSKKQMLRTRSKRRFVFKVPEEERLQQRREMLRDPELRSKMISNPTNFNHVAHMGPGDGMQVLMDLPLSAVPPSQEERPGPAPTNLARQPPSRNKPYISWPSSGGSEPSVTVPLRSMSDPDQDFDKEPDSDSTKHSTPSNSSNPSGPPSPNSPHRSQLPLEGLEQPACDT
Nav1.5 (SCN5A), sequence (Q14524 whole entry): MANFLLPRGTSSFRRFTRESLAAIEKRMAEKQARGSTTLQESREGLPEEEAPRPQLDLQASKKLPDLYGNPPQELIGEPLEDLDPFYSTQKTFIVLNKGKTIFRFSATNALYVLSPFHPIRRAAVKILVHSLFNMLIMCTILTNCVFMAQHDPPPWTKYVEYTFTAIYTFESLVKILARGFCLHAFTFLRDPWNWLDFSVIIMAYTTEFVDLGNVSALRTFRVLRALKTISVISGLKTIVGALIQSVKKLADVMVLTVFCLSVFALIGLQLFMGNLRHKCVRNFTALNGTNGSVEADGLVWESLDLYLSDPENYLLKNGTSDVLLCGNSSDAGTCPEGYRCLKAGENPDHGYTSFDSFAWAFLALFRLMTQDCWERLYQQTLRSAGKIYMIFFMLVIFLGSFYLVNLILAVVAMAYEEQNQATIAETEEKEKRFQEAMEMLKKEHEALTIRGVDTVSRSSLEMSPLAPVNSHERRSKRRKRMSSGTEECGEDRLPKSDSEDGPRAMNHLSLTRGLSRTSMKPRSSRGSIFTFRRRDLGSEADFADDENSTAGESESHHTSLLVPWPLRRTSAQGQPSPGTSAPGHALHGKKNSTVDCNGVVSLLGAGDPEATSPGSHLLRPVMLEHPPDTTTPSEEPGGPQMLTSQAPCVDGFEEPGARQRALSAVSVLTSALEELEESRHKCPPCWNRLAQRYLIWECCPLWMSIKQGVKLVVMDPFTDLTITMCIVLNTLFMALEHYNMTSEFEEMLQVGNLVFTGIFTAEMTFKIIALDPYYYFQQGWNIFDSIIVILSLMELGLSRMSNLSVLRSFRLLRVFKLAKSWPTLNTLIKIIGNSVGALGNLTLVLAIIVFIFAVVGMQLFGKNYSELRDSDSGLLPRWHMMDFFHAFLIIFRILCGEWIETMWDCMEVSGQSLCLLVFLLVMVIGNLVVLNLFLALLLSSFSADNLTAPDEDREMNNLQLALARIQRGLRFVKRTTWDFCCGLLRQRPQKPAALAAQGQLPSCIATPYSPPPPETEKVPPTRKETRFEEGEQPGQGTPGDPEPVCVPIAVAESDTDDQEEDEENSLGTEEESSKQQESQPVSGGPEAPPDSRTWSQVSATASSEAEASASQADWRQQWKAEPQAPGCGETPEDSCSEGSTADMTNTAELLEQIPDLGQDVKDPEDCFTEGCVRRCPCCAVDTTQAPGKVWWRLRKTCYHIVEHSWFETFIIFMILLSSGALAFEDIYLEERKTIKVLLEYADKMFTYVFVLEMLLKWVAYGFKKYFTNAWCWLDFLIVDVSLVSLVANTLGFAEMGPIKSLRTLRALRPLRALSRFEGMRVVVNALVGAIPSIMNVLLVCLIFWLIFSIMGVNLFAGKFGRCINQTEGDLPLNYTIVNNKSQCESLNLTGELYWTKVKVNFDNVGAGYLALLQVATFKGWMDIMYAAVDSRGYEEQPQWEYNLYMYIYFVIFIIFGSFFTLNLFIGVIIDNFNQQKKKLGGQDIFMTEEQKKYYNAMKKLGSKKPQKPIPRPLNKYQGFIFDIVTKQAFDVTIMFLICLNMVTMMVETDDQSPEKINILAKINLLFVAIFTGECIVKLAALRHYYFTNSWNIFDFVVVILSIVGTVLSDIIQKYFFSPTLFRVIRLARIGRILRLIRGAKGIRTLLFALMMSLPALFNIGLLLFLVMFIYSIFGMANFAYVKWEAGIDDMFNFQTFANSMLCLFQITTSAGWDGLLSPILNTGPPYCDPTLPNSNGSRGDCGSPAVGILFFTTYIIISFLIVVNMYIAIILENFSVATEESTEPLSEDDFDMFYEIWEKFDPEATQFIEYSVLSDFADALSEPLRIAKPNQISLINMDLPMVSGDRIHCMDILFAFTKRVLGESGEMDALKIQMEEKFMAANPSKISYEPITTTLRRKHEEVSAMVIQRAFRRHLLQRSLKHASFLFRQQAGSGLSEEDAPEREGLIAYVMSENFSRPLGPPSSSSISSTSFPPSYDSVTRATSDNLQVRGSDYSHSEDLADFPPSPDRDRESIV

SMILES: COc1cc(N(C)c2ccnc3ccc(C(F)(F)F)cc23)cc(OC)c1OC
- % binding [1]: 90%

SMILES: CCN(CC)CCCCNc1ncc2cc(-c3cc(OC)cc(OC)c3)c(NC(=O)NC(C)(C)C)nc2n1
- % of control [2]: 100%

SMILES: COCC(=O)NC/C=C/c1ccc2ncnc(Nc3ccc(Oc4ccc(C)nc4)c(C)c3)c2c1 [CP-724714]
- % of control [3]: 96%
- % of control [4]: 86%

SMILES: CN(C)C/C=C/C(=O)Nc1ccc(C(=O)N2CCCC(Nc3ncc(Cl)c(-c4c[nH]c5ccccc45)n3)C2)cc1 (centres undefined)
- % of control [5]: 99%

SMILES: O[C@H]1CC[C@H](Nc2ncc3nc(Nc4c(F)cc(F)cc4F)n([C@H]4CCOC4)c3n2)CC1
- % of control [6]: 55%

SMILES: CCn1c(-c2nc3cc(C(=O)N4CCCC(N)C4)ccc3n2C)cc2ccccc21 (centres undefined)
- XC50 [7]: 31.6 µM

SMILES: C=CC(=O)Nc1cccc(C(=O)Nc2ccc(Nc3cc(-c4[nH]c(SC)nc4C)ccn3)cc2)c1
- % of control ([8]; at 1 µM): 81%
- % of control ([8]; at 5 µM): 58%
